Data on 2 compounds can be found in US11825838B2, “Tricyclic carboxamides for controlling arthropods” (Bayer CropScience Aktiengesellschaft, priority 2017, dated 2023).

Holding throughout (type): in vivo
For experiment [1], the system named is cattle ticks (Boophilus microplus) Parkhurst strain, SP-resistant. The experiment is described as follows: Boophilus microplus dip test. Conditions: application rate 100 ppm, assessed after 7 days by laying of fertile eggs. Here is the method: Boophilus microplus—Dip Test
Test animals: cattle ticks (Boophilus microplus) Parkhurst strain, SP-resistant
Solvent: dimethyl sulfoxide
10 mg of active ingredient are dissolved in 0.5 ml of dimethyl sulfoxide. To produce a suitable formulation, the active ingredient solution is diluted with water to the concentration desired in each case. This active ingredient formulation is pipetted into tubes. 8-10 engorged adult female cattle ticks (Boophilus microplus) are transferred into a further tube with holes. The tube is immersed into the active ingredient formulation, and all the ticks are completely wetted. After the liquid has run out, the ticks are transferred on filter discs into plastic dishes and stored in a climate-controlled room.
Efficacy is assessed after 7 days by laying of fertile eggs. Eggs which are not visibly fertile are stored in a climate-controlled cabinet until the larvae hatch after about 42 days. An efficacy of 100% means that none of the ticks has laid any fertile eggs; 0% means that all the eggs are fertile.

The subject of a further experiment is Boophilus microplus. Put plainly: Boophilus microplus injection test. Conditions: application rate 20 μg/animal, assessed after 7 days by laying of fertile eggs.
In a further experiment the test system is Spodoptera frugiperda. Put plainly: Spodoptera frugiperda spray test (SPODFR).
Experiment [2] deals with Anopheles gambiae strain RSPH (homozygot kdr). Put plainly: Anopheles test (ANPHGB surface treatment). Conditions: application rate 100 mg/m^2, glazed tile, exposure 30 minutes, 24 hours after contact, read-out: efficacy (mortality). The procedure:
Anopheles Test (ANPHGB Surface Treatment)
(§1) Solvent: acetone+2000 ppm rapeseed oil methyl ester (RME)
To produce a suitable active compound formulation, the active compound is dissolved in the solvent (2 mg/ml). The active compound formulation is pipetted onto a glazed tile and, after it has dried off, adult mosquitoes of the species Anopheles gambiae strain RSPH (homozygot kdr) are placed onto the treated tile. The exposure time is 30 minutes.
(§2) 24 hours after contact with the treated surface, mortality in % is determined. 100% means that all mosquitoes have been killed; 0% means that none of the mosquitoes have been killed.

The test system of experiment [3] is Anopheles funestus strain FUMOZ-R. Put plainly: Anopheles test (ANPHFU surface treatment). Conditions: application rate 100 mg/m^2, glazed tile, exposure 30 minutes, 24 hours after contact, read-out: efficacy (mortality). The procedure:
Anopheles Test (ANPHFU Surface Treatment)
as §1
To produce a suitable active compound formulation, the active compound is dissolved in the solvent (2 mg/ml). The active compound formulation is pipetted onto a glazed tile and, after it has dried off, adult mosquitoes of the species Anopheles funestus strain FUMOZ-R (Hunt et al., Med Vet Entomol. 2005 September; 19(3):271-5) are placed onto the treated tile. The exposure time is 30 minutes.
as §2

The subject of experiment [4] is Aedes aegypti strain MONHEIM. Put plainly: Aedes test (AEDSAE surface treatment). Conditions: application rate 100 mg/m^2, glazed tile, exposure 30 minutes, 24 hours after contact, read-out: efficacy (mortality). Here is the method: Aedes Test (AEDSAE Surface Treatment)
as §1
To produce a suitable active compound formulation, the active compound is dissolved in the solvent (2 mg/ml). The active compound formulation is pipetted onto a glazed tile and, after it has dried off, adult mosquitoes of the species Aedes aegypti strain MONHEIM are placed onto the treated tile. The exposure time is 30 minutes.
as §2

The test system of another experiment is Myzus persicae. The experiment is described as follows: Myzus persicae oral test. Conditions: application rate 4 ppm, after 5 days. Here is the method:
To produce a suitable active compound preparation, 1 part by weight of active compound is dissolved with the specified amounts by weight of solvent and made up to the desired concentration with water.
50 ul of the active compound preparation are transferred to microtiter plates and made up to a final volume of 200 μl with 150 μl of IPL41 insect medium (33%+15% sugar). Then the plates are sealed with parafilm through which a mixed population of the green peach aphid (Myzus persicae), which is located in a second microtiter plate, can pierce and absorb the solution.
After 5 days, the efficacy in % is determined. 100% means that all the aphids have been killed; 0% means that no aphids have been killed.

`O=C(NC1CC1)c1cc(-c2cnn(-c3c(Cl)cc(C(F)(C(F)(F)F)C(F)(F)F)cc3Cl)c2)sc1Br` [I-T1-1]: the efficacy (in experiment [1]; in the experiment on Boophilus microplus) was 100% each time. Moreover, in the experiment with Spodoptera frugiperda (Spodoptera frugiperda, 168 h, SPODFR, 100 g ai/ha, 7 dat, read-out: % efficacy dat), the Emax at 100 g/ha is 100%. For the same compound, in the experiment on Spodoptera frugiperda (Spodoptera frugiperda, 168 h, application rate 100 g/ha, spray, after 7 days, read-out: efficacy), the pest or weed control at 100 g/ha is 100%. Further, the mortality at 100 mg/m2 in experiment [2], in experiment [3] and in experiment [4] was 80 to 100% throughout.

For `Cc1sc(-c2cnn(-c3c(Cl)cc(C(F)(C(F)(F)F)C(F)(F)F)cc3Cl)c2)cc1C(=O)NC1CC1` [I-T1-11], the efficacy is recorded as 100% in experiment [1]; 100% in the experiment with Boophilus microplus; 90% in the experiment with Myzus persicae; 100% in the experiment on Spodoptera frugiperda (application rate 100 g/ha, spray, after 7 days).
